Assay results published in patent US20120202840A1, “Use of Flubendazole and Vinca Alkaloids for Treatment of Hematological Diseases” (priority 2009, published 2012).

Key:
bovine tubulin [1] = experiment: Tubulin polymerization assay; assay type: biochemical; details: cell-free, bovine tubulin 1.8 mg/ml; flubendazole 100 μM
Experimental: (§1) A representative figure is shown.
Polymerization of bovine tubulin was measured according to Beyer et al^28. Briefly, bovine tubulin (1.8 mg/ml; Cytoskeleton; Denver, USA) was added to ice cold polymerization buffer (PEM; 80 mM PIPES, 0.5 mM EGTA, 2 mM MgCl2, 10% glycerol and 1 mM GTP) and centrifuged at top speed in a microcentrifuge for 5 min at 4° C. […] Following addition of tubulin, the plate was immediately placed in the spectrophotometer, which was maintained at 37° C., and the absorbance measured every 3 minutes for 2.5 h at 340 nm.

OCI-AML2 cells [2] = experiment: MTS cell growth and viability assay, OCI-AML2; assay type: cell-based; details: OCI-AML2 cells, FIG. 1A
Experimental: (A) OCI-AML2 cells were treated for 72 h with increasing concentrations of benzimidazoles. After incubation, cell growth and viability was measured by the MTS assay. Data represent the mean percentage of viable cells ±SD from a representative experiment.

advanced solid tumors = details: Phase I, cited from earlier work
leukemia cell lines = experiment: Screen of library of 110 drugs for cytotoxicity; assay type: cell-based
Experimental: OCI-AML2 leukemia cells were treated with increasing concentrations of 8 benzimidazoles. Seventy two hours after incubation, cell growth and viability was measured by the MTS assay.

bovine tubulin [3] = experiment: Site of binding to tubulin (colchicine-tubulin fluorescence); details: tubulin 5.0 μM, 100 μM drug 30 min, then colchicine 10 μM 60 min
Experimental: (C) Tubulin (5.0 μM) was incubated for 30 min with 100 μM vinblastine, 100 μM flubendazole, or buffer control. […] A representative figure is shown.
The site of flubendazole binding was determined similar to Gupta et al^19. Bovine tubulin (5.0 μM) was incubated with 100 μM flubendazole, 100 μM vinblastine or buffer control for 30 min at 37° C.

bovine tubulin [4] = experiment: Measurement of tubulin sulfhydryl groups (DTNB); assay type: biochemical; details: flubendazole 100 μM, vinblastine 10 μM
Experimental: as §1
The ability of microtubule target drugs to alter tubulin structure was assessed by measuring the number of reactive cysteine residues using the sulfhydryl reagent 5,5′-Dithio-bis(2-nitrobenzoic acid) (DTNB; Sigma) as previously described^19,29. […] After incubation, DTNB was added (100 μM final concentration) and the absorbance was measured in a 1 cm path length cuvette at 412 nm for 60 min at 37° C. The number of sulfhydryl groups were determined by using a molar extinction coefficient for DTNB of 13 600 (M^−1, cm^−1).^29

CEM = experiment: MTS cell growth and viability assay, CEM; assay type: cell-based; details: 3 replicates
Experimental: (§2) Leukemia (U937, MDAY, CEM, CEM-VBL) and solid tumor cell lines (PPC-1, HeLa) were cultured in RPMI 1640 medium. The epidermoid carcinoma cell lines KB-3-1 and KB-4.0-HTI^23 were grown in Dulbecco's Modified Eagle Medium. The lung carcinoma cell lines A549 and A549.EpoB40 were grown in RPMI with the latter supplemented with 20% fetal calf serum (FCS), and 40 nM epothilone B.^24 Leukemia cell lines OCI-AML2, CEM, and NB4 and all the myeloma cell lines (OPM2, KMS11, JJN3 LP1, H929, L1, KMS12, KSM18 and OCI My5) were maintained in Iscove's Modified Dulbecco's Medium (IMDM). TEX cells were maintained in IMDM, 15% FCS, 1% penicillin-streptomycin, 2 mM L-glutamine, 20 ng/mL SCF, 2 ng/mL IL-3. Unless otherwise noted, all media were supplemented with 10% FCS, 100 units/mL of streptomycin and 100 μg/mL of penicillin (all from Hyclone, Logan, Utah). Cells were incubated in a humidified air atmosphere containing 5% CO2 at 37° C.
(§3) Cell growth and viability was measured using the 3-(4,5-dimethylthiazol-2-yl)-5-(3-carboxymethoxyphenyl)-2-(4-sulfophenyl)-2H-tetrazolium inner salt (MTS) reduction assay (Promega, Madison, Wis.) according to the manufacture's protocol and as previously described^25. Cells were seeded in 96 well plates and treated with drug for 72 h. Optical density (OD) was measured at 490 nm.

OCI-AML2 cells [5] = details: after 16 days of treatment; flubendazole 15 mg/kg, vinblastine 0.3 mg/kg
Experimental: Sub-lethally irradiated SCID mice were injected subcutaneously with OCI-AML2 cells (n=20; 10 per group). After implantation, mice were treated with 50 mg/kg flubendazole (A), 20 mg/kg flubendazole (B), or vehicle control by intraperitoneal injection daily. Tumor volume was measured over time. After 16 days (20 mg/kg dose) or 18 days (50 mg/kg dose), mice were sacrificed and tumors were excised, measured and weighted.
Sub-lethally irradiated SCID mice were injected subcutaneously with OCI-AML2 cells (n=40; 10 per group). […] After 16 (C) or 18 (D) days, mice were sacrificed and tumors were excised, measured and weighted. Data represent the mean±SD tumor weight.
Sub-lethally irradiated SCID mice were injected subcutaneously in the left flank with leukemia OCI-AML2 (2.0×10^6) or myeloma OPM2 (1.0×10^7) cells. Mice were then randomly assigned to receive flubendazole (in 0.9% NaCl and 0.01% tween-80) or vehicle control (0.9% NaCl and 0.01% tween-80) intraperitoneally. […] Tumor volumes (tumor length×width^2×0.5236) were monitored daily using calipers. At the end of the experiment (16-18 days), mice were sacrificed, tumors excised and tumor volume and weight measured. All animal studies were carried out according to the regulations of the Canadian Council on Animal Care and with the approval of the local ethics review board.

CEM-VBL = experiment: MTS assay, CEM-VBL (Pgp over-expressing); assay type: cell-based
Experimental: Over-expression of P-glycoprotein (Pgp, MDR1) renders cells resistant to vinca alkaloid microtubule inhibitors.^43 Therefore, the effects of Pgp over-expression on flubendazole's cytotoxicity were tested. CEM-VBL cells over-express Pgp,^44 which was confirmed with a rhodamine dye exclusion assay. CEM wild type and CEM-VBL cells were treated with increasing concentrations of flubendazole or vinblastine and cell viability measured by the MTS assay (Table 1). […] In contrast, CEM-VBL cells over-expressing Pgp were resistant to vinblastine at concentrations greater than 5.0 μM (Table 1).
as §2, §3

c1ccc2[nH]cnc2c1 [1,3-benzidiazole]
effect on tubulin polymerization / microtubule formation (bovine tubulin [1]): did not inhibit microtubule formation | induction of cell death (OCI-AML2 cells [2]): did not induce cell death

CCCSc1ccc2nc(NC(=O)OC)[nH]c2c1 [albendazole]
patients with severe neutropenia (advanced solid tumors; 7 patients): 3 patients | patients with reduced levels of the tumor markers AFP and CEA (advanced solid tumors; advanced solid tumors): 2 of 7

COC(=O)Nc1nc2ccc(C(=O)c3ccccc3)cc2[nH]1 [mebendazole]
cytotoxicity in library screen (leukemia cell lines): cytotoxic

c1ccc2[nH]c(-c3cscn3)nc2c1 [thiabendazole]
effect on tubulin polymerization / microtubule formation (bovine tubulin [1]): did not inhibit microtubule formation | induction of cell death (OCI-AML2 cells [2]): did not induce cell death

vinblastine
colchicine fluorescence (colchicine binding to tubulin) (bovine tubulin [3]): had no effect | reduction in number of reactive cysteines compared to buffer control (bovine tubulin [4]): 8.6±2.5 | IC50 (CEM): 140 ± 10 nM | mouse body weight (OCI-AML2 cells [5]): does not affect mouse body weight | IC50 (CEM-VBL; CEM-VBL, 3 replicates): > 5000 nM | sensitivity of CEM-VBL cells compared to wild type controls (CEM-VBL; Pgp over-expression): resistant
